# Experimental data: publication PMC9217908, “Screening of commonly prescribed drugs for effects on the CAT1-mediated transport of L-arginine and arginine derivatives” (Amino Acids, 2022)
# Where two headings read alike, the source gives them in different places.
# Legend:
# Assay in all cases: cell-based
# [1] = biological target: T1, CAT1 (cationic amino acid transporter 1, CAT1/SLC7A1) (Homo sapiens, UniProt P30825); design: species or system HEK-CAT1 (HEK293 stably transfected); Inhibition of net CAT1-mediated [3H]-L-arginine (100 uM) uptake, 5 min, scintillation counting, vector control subtracted; conditions: HEK293, L-arginine 100 uM as substrate; for inhibition at 20 µM: read-out: % Inhibition of L-arginine uptake at 20 µM; for inhibition at 200 µM: read-out: % Inhibition of L-arginine uptake at 200 µM
# T1 construct: full-length human transporter stably transfected in HEK cells (HEK-CAT1); net uptake against HEK-VC vector control cells
# Description: (§1) Uptake and inhibition assays using HEK-CAT1 and HEK-VC cells and L-arginine, L-homoarginine, and ADMA as substrates were performed using the protocol described (Strobel et al. [2012]; Chafai et al. [2017]). Briefly, after incubation, the supernatant was replaced with transport buffer containing [^3H]- L-arginine for 5 min and 2.5 min for medium containing [^3H]-L-homoarginine or [^3H]-ADMA with or without the test compound. The reference drugs were screened at concentrations of 20 µM (Figs. 1A, 2A, and 3A) and 200 µM (Figs. 1B, 2B, and 3B). […] The net uptake was determined by subtracting the total amount taken up by control cells from the amount taken up by CAT1-expressing cells, which was expressed as a percentage of the amount taken up by the control. To determine the inhibitory effects of the drugs on CAT1-mediated transport of L-arginine, L-homoarginine, or ADMA, the control was measured in the absence of the potential inhibitor. The value for the percent inhibition was calculated as: Inhibition (%) = 100 – (V/V0 ^* 100), where V and V0 are the net uptake rates (uptake into HEK-CAT1 cells—uptake into HEK-VC cells) with and without test drugs, respectively. […] Each bar represents the effect of one compound on CAT1-mediated L-arginine (100 μM) uptake as percent inhibition. Data were obtained from at least two independent experiments performed in triplicate (n = 6–9) and each test data from the independent experiment were normalized to the respective control data to get the value of percent inhibition. Negative inhibition values indicate stimulated CAT1-mediated uptake. Data were analyzed using one-way ANOVA and Dunnett’s multiple comparison test with p < 0.05. Bars showing a statistically significant inhibition or transport stimulation are shaded in black
# [2] = biological target: T1, CAT1 (cationic amino acid transporter 1, CAT1/SLC7A1); design: species or system HEK-CAT1 (HEK293 stably transfected); Inhibition of net CAT1-mediated [3H]-L-homoarginine (1 uM) uptake, 2.5 min, scintillation counting, vector control subtracted; conditions: HEK293, L-homoarginine 1 uM as substrate; for inhibition at 20 µM: read-out: % Inhibition of L-homoarginine uptake at 20 µM; for inhibition at 200 µM: read-out: % Inhibition of L-homoarginine uptake at 200 µM
# Description: as §1, with “L-homoarginine (1” for “L-arginine (100”
# [3] = biological target: T1, CAT1 (cationic amino acid transporter 1, CAT1/SLC7A1); design: species or system HEK-CAT1 (HEK293 stably transfected); Inhibition of net CAT1-mediated [3H]-ADMA (1 uM) uptake, 2.5 min, scintillation counting, vector control subtracted; conditions: HEK293, ADMA 1 uM as substrate; for inhibition at 20 µM: read-out: % Inhibition of ADMA uptake at 20 µM; for inhibition at 200 µM: read-out: % Inhibition of ADMA uptake at 200 µM
# Description: as §1, with “ADMA (1” for “L-arginine (100”
# T1 sequence (P30825 whole entry): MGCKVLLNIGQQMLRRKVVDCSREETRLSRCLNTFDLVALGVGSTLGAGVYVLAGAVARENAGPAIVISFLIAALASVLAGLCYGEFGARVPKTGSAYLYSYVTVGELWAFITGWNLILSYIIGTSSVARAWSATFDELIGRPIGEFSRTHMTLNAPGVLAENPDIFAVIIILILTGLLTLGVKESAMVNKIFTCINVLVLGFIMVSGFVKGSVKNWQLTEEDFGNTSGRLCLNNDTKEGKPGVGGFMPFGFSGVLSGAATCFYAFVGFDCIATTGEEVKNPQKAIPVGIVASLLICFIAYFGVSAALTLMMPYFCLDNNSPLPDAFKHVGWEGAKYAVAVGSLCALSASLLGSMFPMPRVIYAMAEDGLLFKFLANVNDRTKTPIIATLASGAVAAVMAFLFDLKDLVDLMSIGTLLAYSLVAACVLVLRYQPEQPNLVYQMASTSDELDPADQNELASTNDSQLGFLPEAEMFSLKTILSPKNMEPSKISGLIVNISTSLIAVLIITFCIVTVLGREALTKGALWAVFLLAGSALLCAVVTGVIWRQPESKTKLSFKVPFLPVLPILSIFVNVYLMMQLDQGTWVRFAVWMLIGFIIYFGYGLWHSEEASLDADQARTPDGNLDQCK
Compound,inhibition at 20 µM [1] [%],inhibition at 200 µM [1] [%],inhibition at 20 µM [2] [%],inhibition at 200 µM [2] [%],inhibition at 20 µM [3] [%],inhibition at 200 µM [3] [%]
CCCC1O[C@@H]2C[C@H]3[C@@H]4CCC5=CC(=O)C=C[C@]5(C)[C@H]4[C@@H](O)C[C@]3(C)[C@]2(C(=O)CO)O1 (stereo partly drawn) [Budesonide],-9.7 ± 7.8,-6.4 ± 3.9,-9.7 ± 5.5,-4.9 ± 6.5,-13.2 ± 3.7,-47.7 ± 6.5
CCCCNc1cc(C(=O)O)cc(S(N)(=O)=O)c1Oc1ccccc1 [Bumetanide],9 ± 4,-10.1 ± 1.7,8.9 ± 4.1,-8.6 ± 1.9,-2.8 ± 6.2,-9.7 ± 5.6
CCOc1nc2cccc(C(=O)O)c2n1Cc1ccc(-c2ccccc2-c2nnn[nH]2)cc1 [Candesartan],14.5 ± 2.4,-18.8 ± 2.4,12.6 ± 2.2,-12.6 ± 3.8,-11.1 ± 0.9,8.1 ± 3.1
C[C@H](CS)C(=O)N1CCC[C@H]1C(=O)O [Captopril],0.6 ± 4.7,-15.1 ± 13.1,0.1 ± 4.5,-15.9 ± 3,0.5 ± 2.1,-19.6 ± 2.2
NC(=O)N1c2ccccc2C=Cc2ccccc21 [Carbamazepine],17.8 ± 4.1,0.7 ± 4.3,18.9 ± 3.5,12.7 ± 3.9,4.8 ± 2.1,12.8 ± 4.2
COc1ccccc1OCCNCC(O)COc1cccc2[nH]c3ccccc3c12 (stereo not drawn) [Carvedilol],-14.1 ± 1.5,0.2 ± 3.5,-11.2 ± 0.9,-1.4 ± 7.7,-1.1 ± 3.1,-7.8 ± 7.1
CO/N=C(\C(=O)N[C@@H]1C(=O)N2C(C(=O)O)=C(COC(N)=O)CS[C@H]12)c1ccco1 [Cefuroxime],17.3 ± 3.5,-9.8 ± 8.4,16.8 ± 1.6,-8.5 ± 5.9,-7.1 ± 2.9,-11.5 ± 2.8
O=C(O)CCCc1ccc(N(CCCl)CCCl)cc1 [Chlorambucil],-23.3 ± 3.8,-43.3 ± 6.5,-18.6 ± 1.4,-41.6 ± 6.4,-5.1 ± 2.8,13.9 ± 4.4
CCN(CC)CCCC(C)Nc1ccnc2cc(Cl)ccc12 (stereo not drawn) [Chloroquine],-6.1 ± 1.1,-11.4 ± 2.6,-35.1 ± 5.2,-54.8 ± 6.9,-27 ± 16.2,-23.1 ± 8.2
CN/C(=N\CCSCc1nc[nH]c1C)NC#N [Cimetidine],0.2 ± 7.2,-65.4 ± 5.8,21.9 ± 3,-31.2 ± 1.3,21.9 ± 3.1,1.1 ± 2.5
CN(C)CCCC1(c2ccc(F)cc2)OCc2cc(C#N)ccc21 (stereo not drawn) [Citalopram],-16.7 ± 9.2,42.8 ± 4.1,8.8 ± 3.3,29.6 ± 3.1,8.8 ± 3.3,-15.6 ± 8.1
CC[C@H]1OC(=O)[C@H](C)[C@@H](O[C@H]2C[C@@](C)(OC)[C@@H](O)[C@H](C)O2)[C@H](C)[C@@H](O[C@@H]2O[C@H](C)C[C@H](N(C)C)[C@H]2O)[C@](C)(OC)C[C@@H](C)C(=O)[C@H](C)[C@@H](O)[C@]1(C)O [Clarithromycin],-16.8 ± 2.1,-14.3 ± 6.2,-2.4 ± 2.1,-13.6 ± 3.3,-3.9 ± 5.3,-72.9 ± 1.6
CN(C)CCCN1c2ccccc2CCc2ccc(Cl)cc21 [Clomipramine],-4.1 ± 0.9,-12.8 ± 4.8,-4.5 ± 0.7,-12.2 ± 3.9,18 ± 3.1,14 ± 1.9
C[C@@H]1CCC[C@H](C)N1NC(=O)c1ccc(Cl)c(S(N)(=O)=O)c1 [Clopamide],4.5 ± 1.9,23.4 ± 2.5,-14.3 ± 2.1,14.3 ± 2.2,-11.1 ± 2.3,11.6 ± 6.5
COC(=O)[C@H](c1ccccc1Cl)N1CCc2sccc2C1 [Clopidogrel],6.4 ± 4.4,1.5 ± 4.1,1.9 ± 5.4,0.8 ± 3.1,-11 ± 8.1,-8.9 ± 14.9
Nc1ccc(S(=O)(=O)c2ccc(N)cc2)cc1 [Dapsone],-8.6 ± 4.3,-27.2 ± 4.2,-9.8 ± 4.4,-24.7 ± 3.1,13.4 ± 4.4,-11.8 ± 3.7
CNCCCN1c2ccccc2CCc2ccccc21 [Desipramine],-10.8 ± 2.3,8.3 ± 6.7,-10.3 ± 2.1,11.6 ± 7.2,-0.7 ± 3.1,-37.6 ± 11.8
COc1ccc2c(c1)[C@]13CCCC[C@@H]1[C@H](C2)N(C)CC3 [Dextromethorphan],7.3 ± 1.9,2.9 ± 3.4,-0.5 ± 5.8,3.1 ± 0.7,-3.3 ± 0.3,6.2 ± 3.4
O=C(O)Cc1ccccc1Nc1c(Cl)cccc1Cl [Diclofenac],-15.9 ± 2.5,-91.4 ± 5,-15.1 ± 2.1,-23.1 ± 2.2,26.1 ± 5.3,-21.2 ± 2.8
O=C(O)c1cc(-c2ccc(F)cc2F)ccc1O [Diflunisal],26.6 ± 0.9,-20.5 ± 3.3,27.9 ± 1,-20 ± 0.5,-42.4 ± 4.5,10 ± 2.1
